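96-well plates; 48 h exposure; 5 concentrations. Endpoints by linear interpolation between flanking doses. Not reached: highest tested concentration assigned. At the TGI there is no net growth.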
Assays:
Test in all cases: growth of human tumour cells (NCI), 48 h
MDA-N = tested on: MDA-N
SK-MEL-5 melanoma = tested on: SK-MEL-5 melanoma
IGROV1 ovarian = tested on: IGROV1 ovarian
NCI-H23 lung = tested on: NCI-H23 lung
U251 CNS = tested on: U251 CNS
DU-145 prostate = tested on: DU-145 prostate
MDA-MB-435 = tested on: MDA-MB-435
NCI-H226 lung = tested on: NCI-H226 lung
SW-620 colon = tested on: SW-620 colon
786-0 renal = tested on: 786-0 renal
EKVX NSCLC = tested on: EKVX NSCLC
HCC-2998 colon = tested on: HCC-2998 colon
PC-3 prostate = tested on: PC-3 prostate
LOX IMVI melanoma = tested on: LOX IMVI melanoma
CAKI-1 renal = tested on: CAKI-1 renal
KM12 colon = tested on: KM12 colon
A498 renal = tested on: A498 renal
COLO 205 colon = tested on: COLO 205 colon
HOP-62 NSCLC = tested on: HOP-62 NSCLC
SF-539 CNS = tested on: SF-539 CNS
T-47D breast = tested on: T-47D breast
HS 578T breast = tested on: HS 578T breast
OVCAR-5 ovarian = tested on: OVCAR-5 ovarian
TK-10 renal = tested on: TK-10 renal
CCRF-CEM leukemia = tested on: CCRF-CEM leukemia
UO-31 renal = tested on: UO-31 renal
NCI-H460 lung = tested on: NCI-H460 lung
SK-OV-3 ovarian = tested on: SK-OV-3 ovarian
OVCAR-3 ovarian = tested on: OVCAR-3 ovarian
SN12C renal = tested on: SN12C renal
HCT-116 colon = tested on: HCT-116 colon
MDA-MB-231 breast = tested on: MDA-MB-231 breast
K-562 leukemia = tested on: K-562 leukemia
HCT-15 colon = tested on: HCT-15 colon
MALME-3M melanoma = tested on: MALME-3M melanoma
OVCAR-4 ovarian = tested on: OVCAR-4 ovarian
SNB-75 CNS = tested on: SNB-75 CNS
M14 melanoma = tested on: M14 melanoma
NCI/ADR-RES ovarian = tested on: NCI/ADR-RES ovarian
UACC-62 melanoma = tested on: UACC-62 melanoma
OVCAR-8 ovarian = tested on: OVCAR-8 ovarian
SNB-19 CNS = tested on: SNB-19 CNS
A549 NSCLC = tested on: A549 NSCLC
ACHN renal = tested on: ACHN renal
MCF7 breast = tested on: MCF7 breast
SK-MEL-28 melanoma = tested on: SK-MEL-28 melanoma
HOP-92 NSCLC = tested on: HOP-92 NSCLC
MOLT-4 leukemia = tested on: MOLT-4 leukemia
UACC-257 melanoma = tested on: UACC-257 melanoma
HT29 colon = tested on: HT29 colon
BT-549 breast = tested on: BT-549 breast
SF-295 CNS = tested on: SF-295 CNS
SR leukemia = tested on: SR leukemia
SF-268 CNS = tested on: SF-268 CNS
SK-MEL-2 melanoma = tested on: SK-MEL-2 melanoma
NCI-H522 lung = tested on: NCI-H522 lung
RXF 393 renal = tested on: RXF 393 renal
RPMI-8226 leukemia = tested on: RPMI-8226 leukemia
HL-60(TB) leukemia = tested on: HL-60(TB) leukemia

## CN(C)CCCNc1c(O)c2c(c(O)c1Cl)C(=O)C=CC2=O
MDA-N
  TGI: 6.38 µM
SK-MEL-5 melanoma
  TGI: 2.82 µM
IGROV1 ovarian
  TGI: 3.45 µM
NCI-H23 lung
  TGI: 3.22 µM
U251 CNS
  TGI: 3.46 µM
DU-145 prostate
  TGI: 3.27 µM
MDA-MB-435
  TGI: 4.33 µM
NCI-H226 lung
  TGI: > 10 µM
SW-620 colon
  TGI: 3.39 µM
786-0 renal
  TGI: 3.25 µM
EKVX NSCLC
  TGI: > 10 µM
HCC-2998 colon
  TGI: 3.22 µM
PC-3 prostate
  TGI: 6.83 µM
LOX IMVI melanoma
  TGI: 3.13 µM
CAKI-1 renal
  TGI: > 10 µM
KM12 colon
  TGI: > 10 µM
A498 renal
  TGI: > 10 µM
COLO 205 colon
  TGI: 3.07 µM
HOP-62 NSCLC
  TGI: 7.87 µM
SF-539 CNS
  TGI: 3.22 µM
T-47D breast
  TGI: 4.28 µM
HS 578T breast
  TGI: 3.65 µM
OVCAR-5 ovarian
  TGI: 3 µM
TK-10 renal
  TGI: > 10 µM
CCRF-CEM leukemia
  TGI: 5.7 µM
UO-31 renal
  TGI: > 10 µM
NCI-H460 lung
  TGI: 3.81 µM
SK-OV-3 ovarian
  TGI: > 10 µM
OVCAR-3 ovarian
  TGI: 6.6 µM
SN12C renal
  TGI: 3.2 µM
HCT-116 colon
  TGI: 5.1 µM
MDA-MB-231 breast
  TGI: 7.77 µM
K-562 leukemia
  TGI: > 10 µM
HCT-15 colon
  TGI: 3.28 µM
MALME-3M melanoma
  TGI: 3.25 µM
OVCAR-4 ovarian
  TGI: 2.82 µM
SNB-75 CNS
  TGI: > 10 µM
M14 melanoma
  TGI: 2.9 µM
NCI/ADR-RES ovarian
  TGI: 5.38 µM
UACC-62 melanoma
  TGI: 3.18 µM
OVCAR-8 ovarian
  TGI: 9.69 µM
SNB-19 CNS
  TGI: 4.67 µM
A549 NSCLC
  TGI: 3.52 µM
ACHN renal
  TGI: > 10 µM
MCF7 breast
  TGI: 3.22 µM
SK-MEL-28 melanoma
  TGI: 2.85 µM
HOP-92 NSCLC
  TGI: > 10 µM
MOLT-4 leukemia
  TGI: 5.04 µM
UACC-257 melanoma
  TGI: 3.71 µM
HT29 colon
  TGI: 4.27 µM
BT-549 breast
  TGI: 2.94 µM
SF-295 CNS
  TGI: 3.27 µM

## Cc1c(N2C(=O)/C(=C/C=C/c3ccccc3)N=C2c2ccccc2)c(=O)n(-c2ccccc2)n1C
MDA-N
  TGI: 38.3 µM
SK-MEL-5 melanoma
  TGI: 30.8 µM
IGROV1 ovarian
  TGI: 35.5 µM
NCI-H23 lung
  TGI: 61.1 µM
U251 CNS
  TGI: 33 µM
SR leukemia
  TGI: 47.1 µM
DU-145 prostate
  TGI: > 100 µM
MDA-MB-435
  TGI: 33.1 µM
NCI-H226 lung
  TGI: 58.4 µM
SW-620 colon
  TGI: 99.4 µM
786-0 renal
  TGI: > 100 µM
EKVX NSCLC
  TGI: 36.5 µM
SF-268 CNS
  TGI: 68.9 µM
PC-3 prostate
  TGI: 76.9 µM
LOX IMVI melanoma
  TGI: 52 µM
CAKI-1 renal
  TGI: > 100 µM
KM12 colon
  TGI: 80.3 µM
COLO 205 colon
  TGI: 30.3 µM
HOP-62 NSCLC
  TGI: 85.3 µM
SF-539 CNS
  TGI: 47.1 µM
SK-MEL-2 melanoma
  TGI: 44.5 µM
T-47D breast
  TGI: > 100 µM
OVCAR-5 ovarian
  TGI: 51.7 µM
NCI-H522 lung
  TGI: 32.6 µM
TK-10 renal
  TGI: > 100 µM
CCRF-CEM leukemia
  TGI: 99.2 µM
RXF 393 renal
  TGI: 33.2 µM
UO-31 renal
  TGI: 32.6 µM
NCI-H460 lung
  TGI: > 100 µM
RPMI-8226 leukemia
  TGI: 47.6 µM
SK-OV-3 ovarian
  TGI: 66.9 µM
OVCAR-3 ovarian
  TGI: 46.6 µM
SN12C renal
  TGI: 69 µM
HCT-116 colon
  TGI: > 100 µM
MDA-MB-231 breast
  TGI: 47.3 µM
K-562 leukemia
  TGI: 75 µM
HCT-15 colon
  TGI: 21 µM
MALME-3M melanoma
  TGI: 92.2 µM
OVCAR-4 ovarian
  TGI: 50.3 µM
SNB-75 CNS
  TGI: 32.1 µM
M14 melanoma
  TGI: > 100 µM
NCI/ADR-RES ovarian
  TGI: 55 µM
UACC-62 melanoma
  TGI: 32 µM
OVCAR-8 ovarian
  TGI: 77.6 µM
HL-60(TB) leukemia
  TGI: 35.7 µM
A549 NSCLC
  TGI: 69.8 µM
ACHN renal
  TGI: 34.1 µM
MCF7 breast
  TGI: > 100 µM
HOP-92 NSCLC
  TGI: 51.3 µM
MOLT-4 leukemia
  TGI: 78.8 µM
UACC-257 melanoma
  TGI: 42.1 µM
HT29 colon
  TGI: 54 µM
BT-549 breast
  TGI: 40.2 µM
SF-295 CNS
  TGI: 40 µM
